# Laboratory results from article PMC12114375, “Discovery of Hydrazineyl Amide Derivative of Pseudolaric Acid B for Reprogramming Tumor-Associated Macrophages Against Tumor Growth” (Molecules, 2025).
# Columns and labels:
# [1] = system: ARG1 protein expression in BMDMs; assay: Western blot of ARG1 protein in macrophages; type: cell-based, mouse; conditions: CSF-1-differentiated BMDMs, IL-4 and IL-13, 48 h, different concentrations
# Description: We also extended the test to primary murine macrophages derived from bone marrow (BMDMs), which were cultured in vitro with recombinant mouse M-CSF for 6 days. The BMDMs were then stimulated with IL-4/IL-13, leading to their transformation into M2-like pro-tumoral macrophages. This transformation was characterized by an increase in both ARG1 and CD206 expression and a decrease in both NOS2 and MHC II expression. […] Subsequently, we assessed the capacity of compound 12 to inhibit the M2-like polarization of macrophages using CSF-1-differentiated mouse BMDMs. These cells were treated with IL-4 and IL-13 for 48 h, and the expression levels of CD206, an M2-type marker, and CD86, an M1-type marker, were analyzed via flow cytometry.
# Total cellular protein was extracted using a 1 × SDS lysis buffer and denatured at 100 °C for 15 min. […]
# Figure 2 Compound 12 inhibits the M2-like polarized phenotype of macrophages. […] The expression levels of the markers CD206 and CD86 on induced macrophages were determined by flow cytometry, and the mean fluorescence intensity (MFI) was analyzed with FlowJo (C), or the cells were lysed and immunoblotted to detect the indicated proteins (D). […] Data are represented as means ± SD. ^### p < 0.001 vs. non-stimulated control group, * p < 0.05, ** p < 0.01, *** p < 0.001 vs. stimulated control group. p-values were determined using one-way ANOVA.
# Hepa1-6 tumor = assay: In vivo anti-tumor efficacy, Hepa1-6 subcutaneous tumor model; conditions: Hepa1-6 model; for tumor growth inhibitory rate: intraperitoneal injections, once daily
# Text: Encouraged by its intriguing cellular activities, we investigated the anti-tumor effect of compound 12 in vivo. The Hepa1-6 liver cancer model, an immunocompetent macrophage-rich subcutaneous murine tumor model, was thus established. […] To further investigate whether the in vivo anti-tumor effect of compound 12 is associated with its inhibition of pro-tumoral macrophages and consequent activation of anti-tumor CD8^+ T cells, we analyzed the infiltration of macrophages and CD8^+ T cells in the tumor tissue of the Hepa1-6 model.
# Animal procedures were approved by the Institutional Animal Care and Use Committee of the Shanghai Institute of Materia Medica (approval no. 2024-06-DJ-95). Mice (4–6 weeks old) were housed with five or six mice per cage in a specific pathogen-free room with a 12 h light/dark schedule at 25 °C ± 1 °C and were fed an autoclaved chow diet and water ad libitum. Hepa1-6 cells (2 × 10^6 cells) were subcutaneously implanted in the right flank of C57 BL/6 mice. […] The tumor volumes and body weights were measured twice per week. Tumor volume (TV) was calculated as follows: TV = (length × width^2)/2. Significant differences between the treated versus the vehicle groups were determined using the Student’s t-test. […] Viability was determined by staining with either the LIVE/DEAD® Fixable Violet Dead Cell Stain Kit (Invitrogen, Waltham, […], USA) or the Zombie Aqua™ Fixable Viability Kit (Biolegend, San Diego, CA, USA). Data were analyzed using FlowJo10.4 software.
# Figure 4 Compound 12 inhibited Hepa1-6 tumor growth in vivo and remodeled the tumor microenvironment. […] The TVs (A) and body weights (B) are presented as the mean ± SEM. * p < 0.05 vs. the vehicle group, determined by the Student’s t-test. […] The infiltration of CD45^+ cells (C), TAMs (D), CD206^+ TAMs (E), ARG1^+ TAMs (F), CD8^+ T cells (G), GRZB^+ CD8^+ T cells (H), IFN γ^+ CD8^+ T cells (I), and TNF α^+ CD8^+ T cells (J) was tested (n = 8 mice in the vehicle group and n = 7 mice in the 12-treated group). * p < 0.05, ** p < 0.01, *** p < 0.001 vs. the vehicle group, determined by the Student’s t-test.
compound,measurement,setting,value
"COC(=O)C1=CC[C@@]23CC[C@@H]([C@@](C)(/C=C/C=C(\C)C(=O)NNCCO)OC2=O)[C@@]3(OC(C)=O)CC1 [compound 12, Methyl(3R,4S,4aS,9aR)-4a-acetoxy-3-((1E,3E)-5-(2-(2-hydroxyethyl)hydrazineyl)-4-methyl-5-oxopenta-1,3-dien-1-yl)-3-methyl-1-oxo-3,4,4a,5,6,9-hexahydro-1H-4,9a-ethanocyclohepta[c]pyran-7-carboxylate]",ARG1 protein expression (Western blot),[1],potent inhibitory activity at the protein level
same,body weight during the treatment,Hepa1-6 tumor; 25 and 50 mg/kg,no obvious loss of body weight
same,tumor growth inhibitory rate,Hepa1-6 tumor; 25 mg/kg,53.2%
same,tumor growth inhibitory rate,Hepa1-6 tumor; 50 mg/kg,48.3%
